Measured values reported in patent US20260356846A1, “STATIN DERIVATIVES AND METHODS OF USING THE SAME” (The General Hospital Corporation, priority 2023, published 2026).
pEC50: −log10 of the molar value. Like-named read-outs stand apart in the source and are kept apart here.

Experiments:
[1] = tested on: STMN2 (TDP-mut (N352S) STMN2-NLuc SH-SY5Y cells); test: STMN2 nanoluciferase assay in TDP-43 mutant SH-SY5Y cells (Table A: mut TDP-43; Table B: mut HD Luciferase); assay type: cell-based, human; conditions: mutant TDP-43 cell line; for pEC50: Homo sapiens, SH-SY5Y
Protocol: (§1) Neuroblastoma cells (ATCC) were cultured in DMEM/F12 (Gibco) supplemented with 10% fetal-bovine serum (Omega) and 1% penicillin-streptomycin (Gibco) at 37 °C with 5% CO2. For knockdown experiments, cells were transfected with SMARTpool ON-TARGETplus siRNA or control siRNA pool (D001810-10) (GE Dharmacon) at a final concentration of 50 nM, for 96 h in two doses (0, 24 h), after complexing with Lipofectamin RNAiMAX (Invitrogen) in Opti-MEM (Gibco) for 10 min.
(§2) WT and TDP-mut (N352S) SH-SY5Y cells were edited using CRISPR-Cas9 to express Nanoluciferase at the C-terminus of both endogenous STMN2 alleles. A single guided RNA targeting STMN2 C-terminus was designed (Benchling webtool) and cloned into pSpCas9-2A-green fluorescent protein (GFP) plasmid (px458-Addgene) using the BbsI restriction site. The sequence for guided RNA targeting STMN2 was: […]. For the repair template, overlapping fragments of 800 bp STMN2 homology arms flanking Nanoluciferase (NLuc, Promega) were generated and ligated into pUC57 backbone. A 42 bp GS-linker was also included 5′ to NLuc to prevent steric hindrance of the reporter to the final STMN2 exon. Fragments were ligated using Gibson Assembly and nucleofected simultaneously with pSpCas9-2A-GFP-gRNA plasmid using the Amaxa Nucleofector (assay A-023). Forty-eight hours following electroporation, cells were collected, and GFP-positive cells sorted and single-cell seeded into 96-well plates using the SH800S Sony cell sorter. Individual clones were expanded and DNA was extracted for PCR amplification of the STMN2 Ex5 genomic locus using primers within NLuc and outside the STMN2 5′ homology arm to confirm presence of the insert. The entire STMN2 coding region and all exon-intron junctions (>500-bp length of each intronic region) were then sequenced to verify the absence of any additional DNA alteration. qPCR analysis was performed with a wild-type isogenic SH-SY5Y cell line that had undergone the mutagenesis attempt but not acquired the insertion mutation during the original screening process.
(§3) TDP-mut STMN2-NLuc SH-SY5Y cells were used in small-molecule screening at ICCB-Longwood. 3000 cells/well were plated in white 384-well plates using a 50 ul sample volume. 24 hours after plating, compounds were added using 100 nl pin transfer. 24 hours later, 25 ul NLuc assay was added to each well according to manufacturer instructions (Promega, Cat #). Plates were shaken for 1 min prior to luminescence readings using EnVision2 machine. DMSO-only and WT STMN2-NLuc cells were included as negative and positive controls respectively on each plate, producing an average Z′score of ~0.7 across the screen. Each library plate was conducted in duplicate, and Z-scores calculated for each compound. For subsequent validation experiments, cell numbers in each well were quantified by hoescht staining at 1 μg/ml for 15 mins at 37C in black, clear bottom plates, prior to imaging at 4× using automated microscopy (ImageXpressMicro). Nuclei were then counted using a custom algorithm, and luciferase assay run as above. Luminescence results were then normalised against cell counts as RLU/cell.
(§4) Each compound was tested in triplicate in log doses ranging 0.01 μM−10 μM. The values are represented in luminescence normalized to the number of cells in the well, wherein darker grey correlates to higher RLU per cell and higher STMN2 protein expression.

[2] = tested on: STMN2 (WT STMN2-NLuc SH-SY5Y cells); test: STMN2 nanoluciferase assay in WT SH-SY5Y cells (Table A: WT TDP-32; Table B: WT HD Luciferase); assay type: cell-based, human; conditions: Homo sapiens, SH-SY5Y, WT cell line; for maximal fold induction: Emax
Protocol: as §1, §2, §3, §4

[3] = Table B, read-out: EC50, mut HD Luciferase
[4] = Table B, read-out: EC50, WT HD Luciferase
[5] = Table A, read-out: EC50, mut TDP-43
[6] = Table A, read-out: EC50, WT TDP-32

| SMILES | pEC50 [1, 3] | maximal fold induction ([2]; Table B) | pEC50 [2, 4] | HD Luciferase (mut, Emax) ([1]; Table B) | pEC50 [1, 5] | pEC50 [2, 6] |
| --- | --- | --- | --- | --- | --- | --- |
| COCc1c(C2CC2)nc(C2CC2)c(/C=C/[C@@H](O)C[C@@H](O)CC(=O)O)c1-c1cc(Cl)ccc1F [II-20, (3R,5S,E)-7-(4-(5-chloro-2-fluorophenyl)-2,6-dicyclopropyl-5-(methoxymethyl)pyridin-3-yl)-3,5-dihydroxyhept-6-enoic acid] | 7.30 to 8.00 | 1.25 to 1.5 | 7.30 to 8.00 | – | – | – |
| COCc1c(C2CC2)nc(C2CC2)c(/C=C/[C@@H](O)C[C@@H](O)CC(=O)O)c1-c1c(F)cc(F)cc1Cl [II-21, (3R,5S,E)-7-(4-(2-chloro-4,6-difluorophenyl)-2,6-dicyclopropyl-5-(methoxymethyl)pyridin-3-yl)-3,5-dihydroxyhept-6-enoic acid] | ≥ 8.00 | 1.5 to 1.75 | ≥ 8.00 | – | – | – |
| COCc1c(C2CC2)nc(C2CC2)c(/C=C/[C@@H](O)C[C@@H](O)CC(=O)O)c1-c1c(F)cccc1Cl [II-22, (3R,5S,E)-7-(4-(2-chloro-6-fluorophenyl)-2,6-dicyclopropyl-5-(methoxymethyl)pyridin-3-yl)-3,5-dihydroxyhept-6-enoic acid] | 7.30 to 8.00 | – | 7.30 to 8.00 | – | – | – |
| O=C(O)C[C@H](O)C[C@H](O)/C=C/c1c(C2CC2)nc(C2CC2)c(COC2CC2)c1-c1ccc(Cl)cc1F [II-23, (3R,5S,E)-7-(4-(4-chloro-2-fluorophenyl)-5-(cyclopropoxymethyl)-2,6-dicyclopropylpyridin-3-yl)-3,5-dihydroxyhept-6-enoic acid] | 7.30 to 8.00 | – | 7.30 to 8.00 | – | – | – |
| COCc1c(C2CC2)nc(C2CC2)c(/C=C/[C@@H](O)C[C@@H](O)CC(=O)O)c1-c1cc(F)ccc1C [II-24, (3R,5S,E)-7-(2,6-dicyclopropyl-4-(5-fluoro-2-methylphenyl)-5-(methoxymethyl)pyridin-3-yl)-3,5-dihydroxyhept-6-enoic acid] | 7.30 to 8.00 | 1.25 to 1.5 | 7.30 to 8.00 | ** (means≥1.25 and <1.5) | – | – |
| COCc1c(C2CC2)nc(C2CC2)c(/C=C/[C@@H](O)C[C@@H](O)CC(=O)O)c1-c1ccccc1Cl [II-25, (3R,5S,E)-7-(4-(2-chlorophenyl)-2,6-dicyclopropyl-5-(methoxymethyl)pyridin-3-yl)-3,5-dihydroxyhept-6-enoic acid] | 7.30 to 8.00 | – | 7.30 to 8.00 | – | – | – |
| COCc1c(C2CC2)nc(C)c(/C=C/[C@@H](O)C[C@@H](O)CC(=O)O)c1-c1ccc(F)cc1C [II-26, (3R,5S,E)-7-(6-cyclopropyl-4-(4-fluoro-2-methylphenyl)-5-(methoxymethyl)-2-methylpyridin-3-yl)-3,5-dihydroxyhept-6-enoic acid] | ≤ 6.30 | 1 to 1.25 | ≤ 6.30 | * (means≥1 and <1.25) | – | – |
| O=C(O)C[C@H](O)C[C@H](O)/C=C/c1c(-c2ccc(F)cc2Cl)cc(C2CC2)nc1C1CCC1 [II-27, (3R,5S,E)-7-(4-(2-chloro-4-fluorophenyl)-2-cyclobutyl-6-cyclopropylpyridin-3-yl)-3,5-dihydroxyhept-6-enoic acid] | ≤ 6.30 | 1 to 1.25 | ≤ 6.30 | * (means≥1 and <1.25) | – | – |
| O=C(O)C[C@H](O)C[C@H](O)/C=C/c1c(C2CC2)nc2ccccc2c1-c1ccc(F)cc1 [Pitavastatin, pitavastatin, reference compound] | – | – | – | – | 6.00 to 6.30 | 6.00 to 6.30 |
| CC[C@H](C)C(=O)O[C@H]1C[C@H](O)C=C2C=C[C@H](C)[C@H](CC[C@@H](O)C[C@@H](O)CC(=O)O)[C@H]21 [Pravastatin] | – | – | – | – | ≤ 5.00 | ≤ 5.00 |
